Experimental data published in ChEMBL document CHEMBL1201862, “PubChem BioAssay data set” (2004).
Active and inactive are the calls of the source. No stated cut-off is given here; in the data, actives have a measured IC50 and inactives only a lower limit.

Biological target: Envelope glycoprotein gp160 (Human immunodeficiency virus 1, UniProt Q6QLK5)
Assay: inhibitors of HIV fusion peptide binding, primary screen, biochemical, uHTS, fluorescence dequenching (AID 1986)

Envelope glycoprotein gp160, sequence (Q6QLK5 whole entry, the tested form may be a part): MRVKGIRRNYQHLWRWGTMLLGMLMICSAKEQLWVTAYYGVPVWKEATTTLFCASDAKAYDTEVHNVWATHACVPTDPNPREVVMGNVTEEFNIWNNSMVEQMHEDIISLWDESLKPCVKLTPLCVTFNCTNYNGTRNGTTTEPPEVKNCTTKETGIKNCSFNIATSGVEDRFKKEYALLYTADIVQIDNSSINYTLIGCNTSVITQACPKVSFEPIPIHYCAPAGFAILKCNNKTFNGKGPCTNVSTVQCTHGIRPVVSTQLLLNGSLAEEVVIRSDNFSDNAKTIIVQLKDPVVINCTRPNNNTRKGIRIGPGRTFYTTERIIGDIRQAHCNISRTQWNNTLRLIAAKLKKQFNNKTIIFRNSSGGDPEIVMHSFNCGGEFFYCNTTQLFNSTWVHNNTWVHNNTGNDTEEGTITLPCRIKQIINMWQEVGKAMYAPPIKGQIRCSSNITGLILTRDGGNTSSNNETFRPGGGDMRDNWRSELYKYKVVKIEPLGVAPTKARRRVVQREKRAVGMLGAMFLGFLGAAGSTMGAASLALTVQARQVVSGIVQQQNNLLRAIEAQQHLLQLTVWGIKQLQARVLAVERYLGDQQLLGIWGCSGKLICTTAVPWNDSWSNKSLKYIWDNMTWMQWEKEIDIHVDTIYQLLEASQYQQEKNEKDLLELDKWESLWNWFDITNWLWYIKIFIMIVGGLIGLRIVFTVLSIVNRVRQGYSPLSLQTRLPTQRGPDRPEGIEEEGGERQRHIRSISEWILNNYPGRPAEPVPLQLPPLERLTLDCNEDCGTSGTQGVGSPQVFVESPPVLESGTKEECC

O=C(CSc1nc2ccccc2c(=O)n1Cc1ccccc1)Nc1ccc(Br)cc1C(=O)O
IC50: 14.4 µM (active)

O=c1/c(=C\c2cc([N+](=O)[O-])cc([N+](=O)[O-])c2O)sc2nc3ccccc3n12
IC50: 6.01 µM (active)

Cc1ccc(F)c(NC(=O)/C(C#N)=C(\O)c2ccc(C(C)(C)C)cc2)c1
IC50: 19.6 µM (active)
